{"source": "paper PMC4650713", "about": "“Crystal structure of Bax bound to the BH3 peptide of Bim identifies important contacts for interaction” (Cell Death & Disease, 2015)", "key": {"[1]": {"target": "T1, BaxΔC21 (Homo sapiens, UniProt Q07812, C126S/C62S)", "T1 construct": "made in house; host or cells: Escherichia coli BL21(DE3) or ER2566", "T1 sequence (Q07812 1-171 C62S/C126S)": "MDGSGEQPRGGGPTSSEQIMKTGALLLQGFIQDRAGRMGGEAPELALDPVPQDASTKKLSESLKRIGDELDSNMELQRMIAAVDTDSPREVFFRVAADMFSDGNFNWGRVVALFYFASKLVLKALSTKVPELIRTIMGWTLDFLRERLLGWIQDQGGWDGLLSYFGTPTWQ", "assay": "Bax binding assay: SPR, BH3 peptides displacing BaxΔC from a BimBH3 chip", "settings": "SPR competition, 0.5% octylglucoside", "protocol": "Bax binding assays were performed using a protocol modified from that described previously.[18] […] IC50 values were calculated with GraphPad Prism (GraphPad Software, La Jolla, CA, USA)."}, "[2]": {"system": "BaxΔC21", "assay": "Core/latch dimer formation of BaxΔC21 with CHAPS and BH3 peptide, analysed by SEC", "format": "biochemical", "settings": "BaxΔC21 2 mg/ml, twofold molar excess of peptide, 1% CHAPS, 1 h at room temperature"}, "[3]": {"system": "full-length Bax", "assay": "Liposome permeabilisation (carboxy-fluorescein release) by full-length Bax in response to BH3 peptides", "format": "biochemical", "settings": "liposomes 4 μg/ml, 50 nM full-length Bax, 500 nM BH3 peptide, 1 h at RT; three independent experiments", "protocol": "The suspension was extruded through a 100 nm pore size membrane and then passed over a PD10 column to remove unincorporated dye. Liposomes at 4 μg/ml were incubated with 50 nM full-length Bax and 500 nM BH3 peptide in SUV buffer for 1 h at RT. Fluorescence of released self-quenching 5(6)-carboxy-fluorescein was measured with an excitation wavelength of 485 nm and emission wavelength of 535 nm."}, "[4]": {"system": "mitochondria isolated from Bak−/− Bax−/− mouse embryonic fibroblasts (MEFs) ectopically expressing BaxS184L", "assay": "Cytochrome c release from isolated mitochondria", "format": "cell-based", "settings": "immunoblot of supernatant and pellet, representative of two independent experiments", "protocol": "To test whether this change in binding affinity influenced apoptotic activity, we assessed the ability of each peptide to induce cytochrome c release from mitochondria isolated from Bak^−/− Bax^−/− mouse embryonic fibroblasts (MEFs) ectopically expressing the mitochondrially targeted Bax variant BaxS184L.[28]\nBaxS184L was stably expressed in Bax^−/− Bak^−/− MEFs and cytochrome c release assays were performed as described for Bak.[23] Supernatant and pellet fractions were separated and analysed for cytochrome c by immunoblotting."}}, "note": "Where no end group is shown, it is not given here.", "data": [{"sequence": "SESQEDIIRNIARHLRQVGDSMDRSIPPGLVNGL [BidBH3 A91R]", "values": [{"measurement": "binding to BaxΔC21 in the SPR assay", "setting": "[1]", "result": "behaved similar to BimBH3"}, {"measurement": "ability to trigger core/latch dimer formation of BaxΔC21", "setting": "[2]", "result": "largely unaffected"}, {"measurement": "capacity to activate Bax in liposome permeabilisation assay", "setting": "[3]", "result": "enhanced activity over BidBH3"}, {"measurement": "potency at releasing cytochrome c from mitochondria", "setting": "[4]", "result": "at best a marginally more effective than BidBH3"}]}]}
